Measured values published in the kinase profiling compilation of Christmann-Franck et al. (2016).

Legend:
Test in all cases: KINOMEscan competition binding
Details in all cases: compound 10.0 µM
ULK2 (human) = ULK2 (human) (UniProt Q8IYT8)
TAOK3 (human) = TAOK3 (human) (UniProt Q9H2K8)
TLK2 (human) = TLK2 (human) (UniProt Q86UE8)
CDKL3 (human) = CDKL3 (human) (UniProt Q8IVW4)
GRK7 (human) = GRK7 (human) (UniProt Q8WTQ7)
SNRK (human) = SNRK (human) (UniProt Q9NRH2)
MAPK15 (human) = MAPK15 (human) (UniProt Q8TD08)
MAPK15 (human), sequence (Q8TD08 whole entry, looked up): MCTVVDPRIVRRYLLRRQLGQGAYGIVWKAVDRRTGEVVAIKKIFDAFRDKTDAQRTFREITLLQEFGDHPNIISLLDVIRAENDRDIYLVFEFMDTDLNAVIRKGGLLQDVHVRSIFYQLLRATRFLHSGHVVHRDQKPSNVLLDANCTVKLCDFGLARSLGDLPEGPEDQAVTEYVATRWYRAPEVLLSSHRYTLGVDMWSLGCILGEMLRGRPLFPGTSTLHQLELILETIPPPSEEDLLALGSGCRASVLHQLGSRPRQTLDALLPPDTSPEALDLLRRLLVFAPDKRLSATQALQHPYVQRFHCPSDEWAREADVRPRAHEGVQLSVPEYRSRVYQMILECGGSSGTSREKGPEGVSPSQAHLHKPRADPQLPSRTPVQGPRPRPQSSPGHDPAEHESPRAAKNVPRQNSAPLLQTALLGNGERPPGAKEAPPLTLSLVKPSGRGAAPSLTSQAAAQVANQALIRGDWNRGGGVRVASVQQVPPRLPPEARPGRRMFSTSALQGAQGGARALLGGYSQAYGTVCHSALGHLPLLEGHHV

MKNK2 (human) = MKNK2 (human) (UniProt Q9HBH9)
PRPF4B (human) = PRPF4B (human) (UniProt Q13523)
PTK2B (human) = PTK2B (human) (UniProt Q14289)
NUAK2 (human) = NUAK2 (human) (UniProt Q9H093)
SRMS (human) = SRMS (human) (UniProt Q9H3Y6)
CAMK2G (human) = CAMK2G (human) (UniProt Q13555)
ACVRL1 (human) = ACVRL1 (human) (UniProt P37023)
EPHA8 (human) = EPHA8 (human) (UniProt P29322)
EPHA8 (human), sequence (P29322 whole entry, looked up): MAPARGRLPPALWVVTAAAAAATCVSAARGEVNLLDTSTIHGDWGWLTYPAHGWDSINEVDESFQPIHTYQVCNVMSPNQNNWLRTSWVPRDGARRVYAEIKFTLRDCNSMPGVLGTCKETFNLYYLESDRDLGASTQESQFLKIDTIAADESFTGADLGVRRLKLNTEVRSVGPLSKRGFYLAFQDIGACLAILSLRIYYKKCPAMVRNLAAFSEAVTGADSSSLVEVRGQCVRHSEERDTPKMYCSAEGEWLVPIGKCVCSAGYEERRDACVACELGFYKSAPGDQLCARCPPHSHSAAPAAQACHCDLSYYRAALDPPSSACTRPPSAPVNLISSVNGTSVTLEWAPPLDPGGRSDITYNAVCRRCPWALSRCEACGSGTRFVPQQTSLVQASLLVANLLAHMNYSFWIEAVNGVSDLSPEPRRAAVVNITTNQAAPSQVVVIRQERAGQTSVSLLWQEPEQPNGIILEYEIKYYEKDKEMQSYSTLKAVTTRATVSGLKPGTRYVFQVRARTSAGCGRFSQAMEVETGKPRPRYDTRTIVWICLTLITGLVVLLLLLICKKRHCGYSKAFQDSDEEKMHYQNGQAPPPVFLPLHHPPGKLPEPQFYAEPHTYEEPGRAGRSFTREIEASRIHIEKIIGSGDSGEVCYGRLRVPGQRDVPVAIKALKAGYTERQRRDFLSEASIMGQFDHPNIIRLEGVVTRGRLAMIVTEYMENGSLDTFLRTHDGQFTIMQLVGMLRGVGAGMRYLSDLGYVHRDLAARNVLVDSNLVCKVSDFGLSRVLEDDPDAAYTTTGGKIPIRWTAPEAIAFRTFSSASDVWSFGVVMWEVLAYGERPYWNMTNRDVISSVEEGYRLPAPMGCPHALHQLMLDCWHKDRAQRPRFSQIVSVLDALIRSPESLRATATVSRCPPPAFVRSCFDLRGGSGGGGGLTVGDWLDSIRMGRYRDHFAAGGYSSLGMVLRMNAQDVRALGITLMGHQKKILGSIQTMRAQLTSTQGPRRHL

PRKG1 (human) = PRKG1 (human) (UniProt Q13976)
CAMK1G (human) = CAMK1G (human) (UniProt Q96NX5)
MAPK3 (human) = MAPK3 (human) (UniProt P27361)
CLK3 (human) = CLK3 (human) (UniProt P49761)
CLK3 (human), sequence (P49761 whole entry, looked up): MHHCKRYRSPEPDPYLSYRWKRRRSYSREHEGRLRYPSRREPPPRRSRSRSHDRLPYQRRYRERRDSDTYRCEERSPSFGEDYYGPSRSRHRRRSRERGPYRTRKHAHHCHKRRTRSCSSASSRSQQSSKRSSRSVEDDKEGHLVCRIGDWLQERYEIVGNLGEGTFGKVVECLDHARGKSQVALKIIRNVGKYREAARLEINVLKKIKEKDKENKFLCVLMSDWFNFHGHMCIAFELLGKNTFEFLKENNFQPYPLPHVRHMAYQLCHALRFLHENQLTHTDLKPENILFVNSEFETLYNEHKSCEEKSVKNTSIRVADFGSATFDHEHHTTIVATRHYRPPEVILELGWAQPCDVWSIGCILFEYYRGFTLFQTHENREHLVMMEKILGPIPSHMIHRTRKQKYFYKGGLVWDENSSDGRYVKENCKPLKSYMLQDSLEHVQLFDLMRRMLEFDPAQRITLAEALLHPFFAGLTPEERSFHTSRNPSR

PRKCE (human) = PRKCE (human) (UniProt Q02156)
ULK3 (human) = ULK3 (human) (UniProt Q6PHR2)
BTK (human) = BTK (human) (UniProt Q06187)
FLT1 (human) = FLT1 (human) (UniProt P17948)
MAPK12 (human) = MAPK12 (human) (UniProt P53778)
MAST1 (human) = MAST1 (human) (UniProt Q9Y2H9)
PIP5K1C (human) = PIP5K1C (human) (UniProt O60331)
PIP5K1C (human), sequence (O60331 whole entry, looked up): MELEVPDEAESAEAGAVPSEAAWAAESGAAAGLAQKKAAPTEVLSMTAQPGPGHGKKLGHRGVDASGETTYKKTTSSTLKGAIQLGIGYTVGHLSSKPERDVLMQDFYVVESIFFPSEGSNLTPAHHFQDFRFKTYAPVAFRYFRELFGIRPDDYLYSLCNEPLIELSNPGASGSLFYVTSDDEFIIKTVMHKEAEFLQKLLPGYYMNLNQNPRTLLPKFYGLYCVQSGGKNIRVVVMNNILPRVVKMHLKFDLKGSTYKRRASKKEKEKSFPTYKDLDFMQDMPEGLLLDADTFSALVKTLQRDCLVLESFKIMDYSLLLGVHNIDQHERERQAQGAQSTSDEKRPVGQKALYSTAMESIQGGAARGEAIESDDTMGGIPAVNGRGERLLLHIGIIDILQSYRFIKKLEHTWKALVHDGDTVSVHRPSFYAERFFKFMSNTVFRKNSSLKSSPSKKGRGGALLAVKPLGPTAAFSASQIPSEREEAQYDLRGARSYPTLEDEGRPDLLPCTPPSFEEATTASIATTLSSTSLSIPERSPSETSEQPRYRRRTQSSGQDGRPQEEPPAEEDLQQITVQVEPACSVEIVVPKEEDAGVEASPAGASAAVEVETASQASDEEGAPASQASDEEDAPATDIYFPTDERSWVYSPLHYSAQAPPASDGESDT

ADCK3 (human) = ADCK3 (human) (UniProt Q8NI60)
PAK3 (human) = PAK3 (human) (UniProt O75914)
[1] = system: FLT3 (human), P36888 [R834Q]
PAK4 (human) = PAK4 (human) (UniProt O96013)
LATS2 (human) = LATS2 (human) (UniProt Q9NRM7)
SGK110 (human) = SGK110 (human) (UniProt P0C264)
PAK7 (human) = PAK7 (human) (UniProt Q9P286)
PRKD3 (human) = PRKD3 (human) (UniProt O94806)
TIE1 (human) = TIE1 (human) (UniProt P35590)
CIT (human) = CIT (human) (UniProt O14578)
AKT2 (human) = AKT2 (human) (UniProt P31751)
MAK (human) = MAK (human) (UniProt P20794)
MAK (human), sequence (P20794 whole entry, looked up): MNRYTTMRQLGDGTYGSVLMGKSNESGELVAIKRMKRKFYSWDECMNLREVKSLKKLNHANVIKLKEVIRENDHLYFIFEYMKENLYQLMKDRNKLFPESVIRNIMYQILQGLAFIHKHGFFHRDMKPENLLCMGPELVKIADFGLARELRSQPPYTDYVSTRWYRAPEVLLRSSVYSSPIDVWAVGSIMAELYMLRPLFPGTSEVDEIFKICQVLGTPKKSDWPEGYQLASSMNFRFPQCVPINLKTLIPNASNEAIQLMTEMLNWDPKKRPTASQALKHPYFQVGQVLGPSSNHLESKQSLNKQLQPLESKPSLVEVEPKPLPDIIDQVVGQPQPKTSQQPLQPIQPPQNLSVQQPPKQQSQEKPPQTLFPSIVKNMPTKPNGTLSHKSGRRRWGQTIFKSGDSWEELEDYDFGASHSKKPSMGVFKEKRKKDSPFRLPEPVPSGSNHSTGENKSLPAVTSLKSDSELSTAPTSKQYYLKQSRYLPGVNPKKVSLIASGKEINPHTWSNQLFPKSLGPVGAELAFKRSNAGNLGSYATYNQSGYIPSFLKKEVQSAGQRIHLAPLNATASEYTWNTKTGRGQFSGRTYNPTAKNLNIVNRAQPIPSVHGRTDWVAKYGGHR

PDGFRA (human) = PDGFRA (human) (UniProt P16234)
MAP3K15 (human) = MAP3K15 (human) (UniProt Q6ZN16)
MAP4K5 (human) = MAP4K5 (human) (UniProt Q9Y4K4)
MAP4K5 (human), sequence (Q9Y4K4 whole entry, looked up): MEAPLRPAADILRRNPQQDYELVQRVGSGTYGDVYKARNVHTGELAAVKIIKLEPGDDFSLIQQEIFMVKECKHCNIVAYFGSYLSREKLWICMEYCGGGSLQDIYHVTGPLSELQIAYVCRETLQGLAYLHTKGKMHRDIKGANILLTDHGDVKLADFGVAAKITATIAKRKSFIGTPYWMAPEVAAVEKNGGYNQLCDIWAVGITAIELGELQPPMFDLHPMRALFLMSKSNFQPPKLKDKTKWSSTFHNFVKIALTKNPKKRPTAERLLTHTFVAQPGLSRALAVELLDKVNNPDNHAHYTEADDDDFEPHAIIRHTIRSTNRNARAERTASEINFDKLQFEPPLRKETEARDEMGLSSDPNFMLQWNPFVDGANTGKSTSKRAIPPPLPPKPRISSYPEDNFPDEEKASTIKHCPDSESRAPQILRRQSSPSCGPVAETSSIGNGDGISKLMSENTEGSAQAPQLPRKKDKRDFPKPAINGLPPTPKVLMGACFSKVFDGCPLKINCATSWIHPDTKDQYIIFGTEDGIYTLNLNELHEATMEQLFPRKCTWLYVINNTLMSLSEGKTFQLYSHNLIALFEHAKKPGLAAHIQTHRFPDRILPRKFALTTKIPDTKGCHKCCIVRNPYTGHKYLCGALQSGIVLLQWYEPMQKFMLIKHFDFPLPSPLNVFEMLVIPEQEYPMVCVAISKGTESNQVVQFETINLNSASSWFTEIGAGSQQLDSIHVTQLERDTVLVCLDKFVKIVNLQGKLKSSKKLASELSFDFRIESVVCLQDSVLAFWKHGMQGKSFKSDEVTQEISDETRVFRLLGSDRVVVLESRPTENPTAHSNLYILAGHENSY

TLK2 (human), sequence (Q86UE8 whole entry, looked up): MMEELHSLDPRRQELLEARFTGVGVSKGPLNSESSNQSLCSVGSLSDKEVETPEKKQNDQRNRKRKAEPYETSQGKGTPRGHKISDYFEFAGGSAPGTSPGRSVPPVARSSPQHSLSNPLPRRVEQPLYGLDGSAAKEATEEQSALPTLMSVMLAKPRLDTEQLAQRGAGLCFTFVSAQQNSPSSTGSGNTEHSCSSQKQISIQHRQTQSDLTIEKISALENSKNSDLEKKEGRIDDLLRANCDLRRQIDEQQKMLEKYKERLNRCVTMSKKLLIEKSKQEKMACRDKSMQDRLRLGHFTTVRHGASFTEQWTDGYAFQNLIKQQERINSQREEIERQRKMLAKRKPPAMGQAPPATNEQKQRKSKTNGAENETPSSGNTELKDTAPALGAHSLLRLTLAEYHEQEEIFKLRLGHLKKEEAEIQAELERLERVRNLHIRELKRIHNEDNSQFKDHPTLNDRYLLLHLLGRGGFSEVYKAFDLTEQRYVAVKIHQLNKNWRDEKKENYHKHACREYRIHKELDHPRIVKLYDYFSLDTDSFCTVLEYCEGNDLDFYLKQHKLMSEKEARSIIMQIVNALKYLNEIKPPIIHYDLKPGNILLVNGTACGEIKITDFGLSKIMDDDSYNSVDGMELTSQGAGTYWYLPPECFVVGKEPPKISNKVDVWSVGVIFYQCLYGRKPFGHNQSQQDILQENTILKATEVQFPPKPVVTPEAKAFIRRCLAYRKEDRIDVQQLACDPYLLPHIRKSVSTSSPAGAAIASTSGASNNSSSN

C=CC(=O)Nc1cc(-n2c(=O)ccc3cnc4ccc(-c5cn[nH]c5)cc4c32)ccc1C
kinase still bound, per cent of control (ULK2 (human)): 81% | kinase still bound, per cent of control (TAOK3 (human)): 47% | kinase still bound, per cent of control (TLK2 (human)): 100% | kinase still bound, per cent of control (CDKL3 (human)): 33% | kinase still bound, per cent of control (GRK7 (human)): 52% | kinase still bound, per cent of control (SNRK (human)): 100% | kinase still bound, per cent of control (MAPK15 (human)): 24% | kinase still bound, per cent of control (MKNK2 (human)): 0.15% | kinase still bound, per cent of control (PRPF4B (human)): 84% | kinase still bound, per cent of control (PTK2B (human)): 96% | kinase still bound, per cent of control (NUAK2 (human)): 46% | kinase still bound, per cent of control (SRMS (human)): 75% | kinase still bound, per cent of control (CAMK2G (human)): 45% | kinase still bound, per cent of control (ACVRL1 (human)): 42% | kinase still bound, per cent of control (EPHA8 (human)): 96% | kinase still bound, per cent of control (PRKG1 (human)): 91% | kinase still bound, per cent of control (CAMK1G (human)): 79% | kinase still bound, per cent of control (MAPK3 (human)): 100% | kinase still bound, per cent of control (CLK3 (human)): 46% | kinase still bound, per cent of control (PRKCE (human)): 100% | kinase still bound, per cent of control (ULK3 (human)): 97% | kinase still bound, per cent of control (BTK (human)): 0.2% | kinase still bound, per cent of control (FLT1 (human)): 100% | kinase still bound, per cent of control (MAPK12 (human)): 98% | kinase still bound, per cent of control (MAST1 (human)): 85% | kinase still bound, per cent of control (PIP5K1C (human)): 42% | kinase still bound, per cent of control (ADCK3 (human)): 91% | kinase still bound, per cent of control (PAK3 (human)): 81% | kinase still bound, per cent of control [1]: 12% | kinase still bound, per cent of control (PAK4 (human)): 100% | kinase still bound, per cent of control (LATS2 (human)): 53% | kinase still bound, per cent of control (SGK110 (human)): 100% | kinase still bound, per cent of control (PAK7 (human)): 95% | kinase still bound, per cent of control (PRKD3 (human)): 98% | kinase still bound, per cent of control (TIE1 (human)): 100% | kinase still bound, per cent of control (CIT (human)): 42% | kinase still bound, per cent of control (AKT2 (human)): 87% | kinase still bound, per cent of control (MAK (human)): 94% | kinase still bound, per cent of control (PDGFRA (human)): 21% | kinase still bound, per cent of control (MAP3K15 (human)): 56% | kinase still bound, per cent of control (MAP4K5 (human)): 93%

COc1cc(C(=O)N2CCC(N3CCN(C)CC3)CC2)ccc1Nc1ncc2c(n1)N(C)c1ccccc1C(=O)N2C
kinase still bound, per cent of control (ULK2 (human)): 67% | kinase still bound, per cent of control (TAOK3 (human)): 24% | kinase still bound, per cent of control (TLK2 (human)): 99% | kinase still bound, per cent of control (CDKL3 (human)): 83% | kinase still bound, per cent of control (GRK7 (human)): 100% | kinase still bound, per cent of control (SNRK (human)): 94% | kinase still bound, per cent of control (MAPK15 (human)): 100% | kinase still bound, per cent of control (MKNK2 (human)): 1.2% | kinase still bound, per cent of control (PRPF4B (human)): 93% | kinase still bound, per cent of control (PTK2B (human)): 78% | kinase still bound, per cent of control (NUAK2 (human)): 47% | kinase still bound, per cent of control (SRMS (human)): 77% | kinase still bound, per cent of control (CAMK2G (human)): 47% | kinase still bound, per cent of control (ACVRL1 (human)): 100% | kinase still bound, per cent of control (EPHA8 (human)): 80% | kinase still bound, per cent of control (PRKG1 (human)): 98% | kinase still bound, per cent of control (CAMK1G (human)): 74% | kinase still bound, per cent of control (MAPK3 (human)): 100% | kinase still bound, per cent of control (CLK3 (human)): 95% | kinase still bound, per cent of control (PRKCE (human)): 100% | kinase still bound, per cent of control (ULK3 (human)): 100% | kinase still bound, per cent of control (BTK (human)): 100% | kinase still bound, per cent of control (FLT1 (human)): 100% | kinase still bound, per cent of control (MAPK12 (human)): 76% | kinase still bound, per cent of control (MAST1 (human)): 100% | kinase still bound, per cent of control (PIP5K1C (human)): 96% | kinase still bound, per cent of control (ADCK3 (human)): 71% | kinase still bound, per cent of control (PAK3 (human)): 83% | kinase still bound, per cent of control [1]: 100% | kinase still bound, per cent of control (PAK4 (human)): 94% | kinase still bound, per cent of control (LATS2 (human)): 95% | kinase still bound, per cent of control (SGK110 (human)): 62% | kinase still bound, per cent of control (PAK7 (human)): 96% | kinase still bound, per cent of control (PRKD3 (human)): 42% | kinase still bound, per cent of control (TIE1 (human)): 100% | kinase still bound, per cent of control (CIT (human)): 99% | kinase still bound, per cent of control (AKT2 (human)): 100% | kinase still bound, per cent of control (MAK (human)): 72% | kinase still bound, per cent of control (PDGFRA (human)): 100% | kinase still bound, per cent of control (MAP3K15 (human)): 69% | kinase still bound, per cent of control (MAP4K5 (human)): 100%

COc1ccc(N(C(=O)Oc2c(C)cccc2C)c2ccnc(Nc3ccc(N4CCN(C)CC4)cc3)n2)c(OC)c1
kinase still bound, per cent of control (ULK2 (human)): 38% | kinase still bound, per cent of control (TAOK3 (human)): 4% | kinase still bound, per cent of control (TLK2 (human)): 76% | kinase still bound, per cent of control (CDKL3 (human)): 0.1% | kinase still bound, per cent of control (GRK7 (human)): 72% | kinase still bound, per cent of control (SNRK (human)): 100% | kinase still bound, per cent of control (MAPK15 (human)): 76% | kinase still bound, per cent of control (MKNK2 (human)): 90% | kinase still bound, per cent of control (PRPF4B (human)): 55% | kinase still bound, per cent of control (PTK2B (human)): 9% | kinase still bound, per cent of control (NUAK2 (human)): 9.8% | kinase still bound, per cent of control (SRMS (human)): 8.6% | kinase still bound, per cent of control (CAMK2G (human)): 100% | kinase still bound, per cent of control (ACVRL1 (human)): 2.7% | kinase still bound, per cent of control (EPHA8 (human)): 0.2% | kinase still bound, per cent of control (PRKG1 (human)): 100% | kinase still bound, per cent of control (CAMK1G (human)): 73% | kinase still bound, per cent of control (MAPK3 (human)): 100% | kinase still bound, per cent of control (CLK3 (human)): 88% | kinase still bound, per cent of control (PRKCE (human)): 27% | kinase still bound, per cent of control (ULK3 (human)): 59% | kinase still bound, per cent of control (BTK (human)): 1.3% | kinase still bound, per cent of control (FLT1 (human)): 11% | kinase still bound, per cent of control (MAPK12 (human)): 75% | kinase still bound, per cent of control (MAST1 (human)): 100% | kinase still bound, per cent of control (PIP5K1C (human)): 96% | kinase still bound, per cent of control (ADCK3 (human)): 26% | kinase still bound, per cent of control (PAK3 (human)): 4% | kinase still bound, per cent of control [1]: 26% | kinase still bound, per cent of control (PAK4 (human)): 97% | kinase still bound, per cent of control (LATS2 (human)): 70% | kinase still bound, per cent of control (SGK110 (human)): 44% | kinase still bound, per cent of control (PAK7 (human)): 82% | kinase still bound, per cent of control (PRKD3 (human)): 11% | kinase still bound, per cent of control (TIE1 (human)): 5.8% | kinase still bound, per cent of control (CIT (human)): 3.8% | kinase still bound, per cent of control (AKT2 (human)): 100% | kinase still bound, per cent of control (MAK (human)): 69% | kinase still bound, per cent of control (PDGFRA (human)): 9.9% | kinase still bound, per cent of control (MAP3K15 (human)): 83% | kinase still bound, per cent of control (MAP4K5 (human)): 0.7%
